Test results as given in ChEMBL document CHEMBL3244307, “Replacement of the disulfide bond in oxytocin by an amide group. Synthesis and some biological properties of (cyclo-(1-L-aspartic acid,6-L-alpha,beta-diaminopropionic acid))oxytocin” (1978).
Active and inactive are the calls of the source. The rule behind the calls is not given here. Where a SMILES comes first, the peptide text is derived from it. Bridges are numbered along the chain shown (N, C = ends). [ ]: non-standard residue; d: D form. ξ: configuration not given here. ξDap = NCC(N)C(=O)O; βAla = NCCC(=O)O

Key:
[1] = tested on: Gallus gallus; test: Effect on vasodepressor activity in conscious chicken; type: functional
[2] = species on record: Rattus norvegicus; test: Effect on pressor response in rat; type: functional, organism-based
[3] = species on record: Rattus norvegicus; test: Uterotonic activity in rat; type: functional
[4] = species on record: Rattus norvegicus; test: Antidiuretic activity in rat; type: functional, Urine

Row | SMILES | Activity [1] [U/mg] | Activity [2] | Activity [3] [U/mg] | Activity [4] [U/mg]
1 | CC[C@H](C)[C@@H]1NC(=O)[C@H](Cc2ccc(O)cc2)NC(=O)[C@@H](N)CC(=O)NCC(C(=O)N2CCC[C@H]2C(=O)N[C@@H](CC(C)C)C(=O)NCC(N)=O)NC(=O)[C@H](CC(N)=O)NC(=O)[C@H](CCC(N)=O)NC1=O (stereo partly drawn) (H-DYIQN[ξDap]PLG-NH2; lactam 1-6) | 6.6 | Active | 16 | 5.6
2 | CC[C@H](C)[C@@H]1NC(=O)[C@H](Cc2ccc(O)cc2)NC(=O)CCNC(=O)C[C@@H](C(=O)N2CCC[C@H]2C(=O)N[C@@H](CC(C)C)C(=O)NCC(N)=O)NC(=O)[C@H](CC(N)=O)NC(=O)[C@H](CCC(N)=O)NC1=O ([βAla]YIQNDPLG-NH2; lactam N-6) | – | – | 1.13 | –
3 | CC[C@H](C)[C@@H]1NC(=O)[C@H](Cc2ccc(O)cc2)NC(=O)[C@@H](N)CSSC[C@@H](C(=O)N2CCC[C@H]2C(=O)N[C@@H](CC(C)C)C(=O)NCC(N)=O)NC(=O)[C@H](CC(N)=O)NC(=O)[C@H](CCC(N)=O)NC1=O [OXYTOCIN] | 500 | – | 540 | 3
